Experimental data reported in the NIST ThermoML archive (doi:10.1021/je3011979).

Assays:
[1] = xn = mol fraction of the nth substance listed; conditions: 101 kPa, Liquid, Vibrating tube method
[2] = excess molar enthalpy (molar enthalpy of mixing); xn = mol fraction of the nth substance listed; conditions: 101 kPa, Liquid, Calvet calorimetry

CCCOC(C)=O [propyl ethanoate] + CCCCCCCC
Conditions	excess molar enthalpy [kcal/mol]	mass density [kg/m3]
[1], 291.15 K, x1 = 0.012	–	705.7
[1], 291.15 K, x1 = 0.0405	–	708.9
[1], 291.15 K, x1 = 0.1465	–	721.9
[1], 291.15 K, x1 = 0.1905	–	727.8
[1], 291.15 K, x1 = 0.2679	–	738.6
[1], 291.15 K, x1 = 0.3573	–	752.2
[1], 291.15 K, x1 = 0.4206	–	762.5
[1], 291.15 K, x1 = 0.4808	–	772.7
[1], 291.15 K, x1 = 0.5357	–	782.6
[1], 291.15 K, x1 = 0.6206	–	798.8
[1], 291.15 K, x1 = 0.6668	–	808.1
[1], 291.15 K, x1 = 0.7082	–	816.9
[1], 291.15 K, x1 = 0.7644	–	829.3
[1], 291.15 K, x1 = 0.8181	–	841.9
[1], 291.15 K, x1 = 0.8638	–	853.1
[1], 291.15 K, x1 = 0.9109	–	865.1
[1], 291.15 K, x1 = 0.9798	–	883.9
[1], 291.15 K, x1 = 1	–	889.6
[1], 298.15 K, x1 = 0.0149	–	700.3
[1], 298.15 K, x1 = 0.0603	–	705.4
[1], 298.15 K, x1 = 0.1039	–	710.8
[1], 298.15 K, x1 = 0.2154	–	725.3
[1], 298.15 K, x1 = 0.2536	–	730.6
[1], 298.15 K, x1 = 0.3283	–	741.5
[1], 298.15 K, x1 = 0.3895	–	751.1
[1], 298.15 K, x1 = 0.4733	–	765
[1], 298.15 K, x1 = 0.5382	–	776.6
[1], 298.15 K, x1 = 0.5953	–	787.3
[1], 298.15 K, x1 = 0.6543	–	799
[1], 298.15 K, x1 = 0.7043	–	809.4
[1], 298.15 K, x1 = 0.7628	–	822.2
[1], 298.15 K, x1 = 0.8145	–	834.2
[1], 298.15 K, x1 = 0.862	–	845.6
[1], 298.15 K, x1 = 0.9221	–	860.9
[1], 298.15 K, x1 = 0.9349	–	864.3
[1], 298.15 K, x1 = 1	–	882.5
[1], 318.15 K, x1 = 0.044	–	687.1
[1], 318.15 K, x1 = 0.0919	–	692.5
[1], 318.15 K, x1 = 0.1675	–	701.7
[1], 318.15 K, x1 = 0.2438	–	711.7
[1], 318.15 K, x1 = 0.3148	–	721.6
[1], 318.15 K, x1 = 0.3866	–	732.3
[1], 318.15 K, x1 = 0.4471	–	741.8
[1], 318.15 K, x1 = 0.5188	–	753.7
[1], 318.15 K, x1 = 0.5695	–	762.8
[1], 318.15 K, x1 = 0.6293	–	773.9
[1], 318.15 K, x1 = 0.6793	–	783.8
[1], 318.15 K, x1 = 0.7422	–	796.8
[1], 318.15 K, x1 = 0.7792	–	804.8
[1], 318.15 K, x1 = 0.8435	–	819.5
[1], 318.15 K, x1 = 0.8743	–	826.9
[1], 318.15 K, x1 = 0.9284	–	840.5
[1], 318.15 K, x1 = 1	–	859.8
[1], 328.15 K, x1 = 0.0249	–	676.7
[1], 328.15 K, x1 = 0.1032	–	685.4
[1], 328.15 K, x1 = 0.1801	–	694.6
[1], 328.15 K, x1 = 0.2554	–	704.4
[1], 328.15 K, x1 = 0.3244	–	713.9
[1], 328.15 K, x1 = 0.4	–	725
[1], 328.15 K, x1 = 0.4761	–	737
[1], 328.15 K, x1 = 0.5341	–	746.7
[1], 328.15 K, x1 = 0.5975	–	757.9
[1], 328.15 K, x1 = 0.6603	–	769.7
[1], 328.15 K, x1 = 0.7147	–	780.7
[1], 328.15 K, x1 = 0.7686	–	791.9
[1], 328.15 K, x1 = 0.8149	–	802.1
[1], 328.15 K, x1 = 0.8651	–	813.8
[1], 328.15 K, x1 = 0.9233	–	828
[1], 328.15 K, x1 = 0.9404	–	832.4
[1], 328.15 K, x1 = 1	–	848.3
[2], 291.15 K, x1 = 0.0879	0.109	–
[2], 291.15 K, x1 = 0.1784	0.183	–
[2], 291.15 K, x1 = 0.2664	0.2424	–
[2], 291.15 K, x1 = 0.3472	0.2808	–
[2], 291.15 K, x1 = 0.4208	0.3023	–
[2], 291.15 K, x1 = 0.486	0.3102	–
[2], 291.15 K, x1 = 0.5436	0.3088	–
[2], 291.15 K, x1 = 0.5927	0.3004	–
[2], 291.15 K, x1 = 0.618	0.2913	–
[2], 291.15 K, x1 = 0.6703	0.2722	–
[2], 291.15 K, x1 = 0.7256	0.2438	–
[2], 291.15 K, x1 = 0.7843	0.206	–
[2], 291.15 K, x1 = 0.8412	0.164	–
[2], 291.15 K, x1 = 0.8983	0.112	–
[2], 291.15 K, x1 = 0.9546	0.0557	–
[2], 298.15 K, x1 = 0.0883	0.103	–
[2], 298.15 K, x1 = 0.1747	0.174	–
[2], 298.15 K, x1 = 0.2568	0.2309	–
[2], 298.15 K, x1 = 0.3398	0.2701	–
[2], 298.15 K, x1 = 0.4117	0.2913	–
[2], 298.15 K, x1 = 0.4788	0.3004	–
[2], 298.15 K, x1 = 0.5346	0.2985	–
[2], 298.15 K, x1 = 0.5849	0.2913	–
[2], 298.15 K, x1 = 0.6055	0.2866	–
[2], 298.15 K, x1 = 0.655	0.2722	–
[2], 298.15 K, x1 = 0.7074	0.2507	–
[2], 298.15 K, x1 = 0.7607	0.222	–
[2], 318.15 K, x1 = 0.0767	0.0942	–
[2], 318.15 K, x1 = 0.1676	0.177	–
[2], 318.15 K, x1 = 0.2591	0.2433	–
[2], 318.15 K, x1 = 0.3352	0.2818	–
[2], 318.15 K, x1 = 0.4086	0.305	–
[2], 318.15 K, x1 = 0.4719	0.3117	–
[2], 318.15 K, x1 = 0.5293	0.3098	–
[2], 318.15 K, x1 = 0.5791	0.3004	–
[2], 318.15 K, x1 = 0.5859	0.2983	–
[2], 318.15 K, x1 = 0.6316	0.2847	–
[2], 318.15 K, x1 = 0.6848	0.2648	–
[2], 318.15 K, x1 = 0.7377	0.2392	–
[2], 318.15 K, x1 = 0.7936	0.2065	–
[2], 318.15 K, x1 = 0.8521	0.163	–
[2], 318.15 K, x1 = 0.9064	0.114	–
[2], 318.15 K, x1 = 0.9555	0.0595	–
